Measurements published in patent publication US11129835B2, “Methods and compositions for the inhibition of PIN1” (Beth Israel Deaconess Medical Center, Inc., priority 2012, dated 2021).

Key:
Pin1 [1] = target: T1, Pin1 (Homo sapiens, UniProt Q13526); assay: Pin1 fluorescence polarization competition assay with Tamra-probe (secondary); settings: for Tamra Secondary Curve Class: Tamra-probe; for Emax: read-out: Tamra Secondary Efficacy
Description: An assay was developed for the identification of inhibitors of Pin1. […] Candidate compounds were screened in a concentration-titration series (e.g., 57 μM to 0.7 nM).
(§1) Pin1 (0.6 μM) was dispensed into black, solid 1536-well plates (32 rows by 48 columns) at 2 μL/well in Pin1 buffer (10 mM HEPES (pH 7.5), 10 mM NaCl, 0.01% Tween20, 1 mM DTT, and 1% glycerol). Next, 23 nL of compound or DMSO was delivered to each well using a pin tool (tip wash sequence: DMSO, IPA, MeOH, 3 s vacuum dry). Two μL of Pin1-1b-HiFluor488 peptide in buffer (10 mM HEPES (pH 7.5), 10 mM NaCl, 0.01% Tween20, 1 mM DTT, and 1% glycerol, 0.02 μM Pin1-1b-HiFluor488) or DMSO was then dispensed to each well using a pin tool (tip wash sequence: DMSO, IPA, MeOH, 3 s vacuum dry), and plates were incubated at room temperature for 10 min (Table 2). Each plate included controls with no candidate inhibitory compound (32 wells), with unlabeled Pin1-1c titration (3.5 mM to 0.020 mM in a 1:2 dilution series including 2 replicates per concentration; 32 wells), and without Pin1 (64 wells).
(§2) The fluorescence polarization signal of each well was measured on a ViewLux® plate reader using a 480/20 nm excitation filter and 540/25 nm S and P emission filters with a 20 second exposure with 2× binning (Table 2). Percent inhibitory activity was determined from corrected fluorescence polarization values.
(§3) Concentration-response curves were fitted to the signals arising from the resulting fluorescence polarization. The concentration-effect curves were then classified based on curve quality (r^2), response magnitude, and degree of measured activity. Compounds were subsequently categorized based on their curve class.
A further secondary assessment was accomplished by replacing the HiFluor-488-labeled probe with Tamra-probe, a red-shifted fluorophore.

Pin1 [2] = target: T1, Pin1; assay: Pin1 fluorescence polarization competition assay, primary qHTS (HiFluor-488 / Alexa488 probe);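 further: Pin1 protein with fluorescent peptide probe, compound displacement read by fluorescence polarization, percent inhibition derived from corrected polarization values, concentration-response curves in 1536-well format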
Description: (§4) The goal of this assay was to identify small-molecule inhibitors of Pin1 using a fluorescence polarization competition assay (FIG. 1). […] Candidate compounds were screened in a concentration-titration series (e.g., 57 μM to 0.7 nM).
as §1, §2, §3
Curves showing change polarized fluorescence may be categorized into 5 classes. Class 1 includes complete curves, having 2 asymptotes and an r^2 value of ≥0.9, with an efficacy of either >80% (class 1.1) or ≤80% (class 1.2). Class 1 curves may also be classified as noisy curves when efficacy is >80% and r^2<0.9 (class 1.3) or when efficacy is ≤80% and r^2<0.9 (class 1.4). Class 2 includes incomplete curves having 1 asymptote and an r^2 value of either >0.9 (subclass a) or <0.9 (subclass b), with an efficacy of either >80% (class 2.1) or ≤80% (class 2.2). Class 2 curves may also be classified as noisy curves when efficacy is >80% and r^2<0.9 (class 2.3) or when efficacy is ≤80% and r^2<0.9 (class 2.4). Class 3 includes single point activity curves having 1 asymptote and an efficacy >3 SD from the mean activity of the sample field at the highest tested concentration. […] A fifth class captures any curves not otherwise classified (FIG. 4).

Pin1 [3] = target: T1, Pin1; assay: confirmatory Pin1 fluorescence polarization competition assay (Alexa488 reconfirmed); settings: for Emax: read-out: Alexa488 Reconfirmed Efficacy;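 on all read-outs here: Pin1 competition with a HiFluor488-labelled peptide probe, read as fluorescence polarization after 10 min at room temperature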
Description: as §4, §1, §2, §3

[4] = Alexa488 Primary Potency, primary qHTS
[5] = Average HTS Potency, average over Alexa488 primary, Alexa488 reconfirmed and Tamra secondary assays
[6] = read-out: Alexa488 Primary Efficacy

T1 sequence (Q13526 whole entry): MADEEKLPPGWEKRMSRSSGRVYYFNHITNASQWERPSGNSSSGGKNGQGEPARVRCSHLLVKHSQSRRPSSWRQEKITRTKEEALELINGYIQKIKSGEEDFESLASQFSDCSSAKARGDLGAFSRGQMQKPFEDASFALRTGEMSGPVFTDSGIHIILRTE

Compound | IC50 (Pin1 [1]) [µM] | Tamra Secondary Curve Class (Pin1 [1]) | Emax (Pin1 [1]) [%] | IC50 (Pin1 [2]; [4]) [µM] | IC50 (Pin1 [2]; [5]) [µM] | Alexa488 Primary Curve Class (Pin1 [2]; primary qHTS) | Emax (Pin1 [2]; [6]) [%] | Emax (Pin1 [2]; read-out: Average HTS Efficacy) [%] | IC50 (Pin1 [3]) [µM] | Alexa488 Reconfirmed Curve Class (Pin1 [3]; confirmatory retest) | Emax (Pin1 [3]) [%]
Cc1ccc(NC(=O)CN(C)C(=O)c2cccc(-n3cccc3)c2)cc1 [Compound 25] | 30 | 3.0 | 73 | 38 | 34 | 2.2 (≤80% (class 2.2)) | 22 | 47 | – | – | –
O=C(O)c1cc2cccc([N+](=O)[O-])c2[nH]1 [Compound 22] | 12 | 2.2 (≤80% (class 2.2)) | 82 | – | 17 | – | – | 88 | 21 | 2.2 (≤80% (class 2.2)) | 93
COc1ccc(NC(=O)CN(C)C(O)c2cc(-c3ccco3)nc3ccccc23)cc1 (stereo not drawn) [Compound 39] | 21 | 3.0 | 53 | 14 | 17 | 2.2 (≤80% (class 2.2)) | 28 | 41 | – | – | –
CCCCCCCCCCCCN1[C@@H](C(=O)O)c2cc(C(F)(F)F)ccc2S1(=O)=O [Compound 34] | 38 | 3.0 | 103 | 20 | 27 | – | 65 | 91 | 24 | – | 104
Cc1cccc(N(Cc2cc(=O)[nH]c3ccccc23)C(=O)CCl)c1 [Compound 10] | – | – | – | 22.4 | 13.6 | 2.2 (≤80% (class 2.2)) | 81.3 | 82.1 | 4.8 | – | 82.9
CCOc1cc(Br)cc(C(c2c(C(=O)O)[nH]c3ccccc23)c2c(C(=O)O)[nH]c3ccccc23)c1O [Compound 45] | 38 | 3.0 | 71 | 22 | 30 | – | 72 | 71 | – | – | –
Cn1nc(-c2ccncc2)nc2c(=O)n(C)c(=O)nc1-2 [Compound 49] | – | – | – | 50 | 25 | 1.2 (≤80% (class 1.2)) | 27 | 48 | 1 | – | 70
O=C(O)c1[nH]c2ccccc2c1C(c1cc(Br)ccc1O)c1c(C(=O)O)[nH]c2ccccc12 [Compound 43] | 24 | 3.0 | 71 | 16 | 20 | 1.2 (≤80% (class 1.2)) | 63 | 67 | – | – | –

These reach a lower IC50 (Pin1 [2]; [5]). Values come first.

IC50 (Pin1 [1]) [µM] | Tamra Secondary Curve Class (Pin1 [1]) | Emax (Pin1 [1]) [%] | IC50 (Pin1 [2]; [4]) [µM] | IC50 (Pin1 [2]; [5]) [µM] | Alexa488 Primary Curve Class (Pin1 [2]; primary qHTS) | Emax (Pin1 [2]; [6]) [%] | Emax (Pin1 [2]; read-out: Average HTS Efficacy) [%] | IC50 (Pin1 [3]) [µM] | Alexa488 Reconfirmed Curve Class (Pin1 [3]; confirmatory retest) | Emax (Pin1 [3]) [%] | Compound
2 | – | 82 | 4 | 2 | – | 74 | 80 | 2 | – | 85 | N#Cc1no[n+]([O-])c1C(=O)c1cccs1 [Compound 31]
– | – | – | 1 | 1 | – | 53 | 63 | 1 | – | 73 | CCn1nc(-c2ccccc2C)nc2c(=O)n(C)c(=O)nc1-2 [Compound 48]
– | – | – | 1.69 | 0.89 | – | 89 | 94 | 0.08 | – | 99 | O=C(c1cccs1)c1no[n+]([O-])c1C(=O)c1cccs1 [Compound 28]
– | – | – | 1 | 4 | – | 93 | 95 | 7 | – | 98 | CC(=O)Nc1cc(=O)c2[nH]o[nH]c=2c1=O [Compound 50]
11 | 2.2 (≤80% (class 2.2)) | 37 | 3 | 7 | 1.2 (≤80% (class 1.2)) | 23 | 30 | – | – | – | O=C(O)C1Nc2c(O)cccc2C2C=CCC12 (stereo not drawn) [Compound 4]
– | – | – | 19 | 13 | – | 103 | 101 | 6 | – | 98 | COc1cc(/C=C2\SC(=O)N(c3ccc(Cl)cc3)C2=O)cc([N+](=O)[O-])c1O [Compound 38]
